Read-outs that look alike come from different tables or passages of the source.
Assays:
[1] = tested on: CYP mRNA expression (CYP1A2, CYP2B, CYP3A); conditions: 0.5 to 50 μM, 48 h
P-gp/Caco-2 = conditions: 5 μM; cited from earlier work
BCRP/MDCK = conditions: 5 μM; cited from earlier work
[2] = dog, 1 μM; cited from earlier work
[3] = human, 1 μM; cited from earlier work
BV2 microglia cell line = conditions: cited from earlier work

**Q.** Which CYP induction [1] does the source give for `CN1CCN(c2cc(-c3ccncc3)c(-c3ccc4ccccc4c3)nn2)CC1` [Compound 11, 6-(4-Methylpiperazin-1-yl)-3-(naphthalen-2-yl)-4-(pyridin-4-yl)pyridazine] here?
**A.** Negative (see Experimental Section)

**Q.** And the “Permeability Caco-2” value (P-gp/Caco-2)?
**A.** highly permeable

**Q.** And the “Pump substrate status P-gp” value (P-gp/Caco-2)?
**A.** Not substrate

**Q.** And the “Permeability MDCK” value (BCRP/MDCK)?
**A.** highly permeable

**Q.** What about the “Pump substrate status BCRP” value (BCRP/MDCK) of the same compound?
**A.** Not substrate

**Q.** What about the “Hepatocyte stability T1/2” value [2] of the same compound?
**A.** Human, T1/2 > 120 min; dog, T1/2 > 120 min (see ref ([14]))

**Q.** And the “Hepatocyte stability T1/2” value [3]?
**A.** Human, T1/2 > 120 min; dog, T1/2 > 120 min (see ref ([14]))

**Q.** What about the “cell proliferation, migration, or phagocytosis” value (BV2 microglia cell line) of the same compound?
**A.** No effect on cell proliferation, migration, or phagocytosis

— publication PMC6580366 (Journal of Medicinal Chemistry, 2019)
